For 20 molecules, log k, MIC and IC50 results are on record in publication PMC6254837, “Investigating Biological Activity Spectrum for Novel Styrylquinazoline Analogues” (Molecules, 2009).

pIC50: −log10 of the molar value. ≈ marks a conversion by molar mass, not a printed value. Where “and” joins values, the source holds several entries; their conditions need not be identical. Equal entries are not always repeated. Where two headings read alike, the source gives them in different places.

For orientation: pIC50 means the negative decadic logarithm of the IC50, by convention in mol/L.

The nature of data set [1]: Lipophilicity HPLC determination (capacity factor k / calculated log k). The format is physicochemical. Conditions: RP-HPLC, C18, MeOH/H2O 55:45, non-buffered, isocratic. The source says: Some groups have used a C18 chromatographic column with methanol-water mobile phases to obtain log kw, i.e., the retention factor extrapolated to 0% organic modifier, as an alternative to log P [50]. The log kw is obtained by performing several measurements with various ratios of water/organic solvent. Nevertheless determination of log kw has some disadvantages in that it is time consuming due to the various measurements that need to be undertaken before calculation of log kw. The main reason for the measurement is that it is more convenient to perform a systematic study of log k of various heteroaromatic compounds using mobile phases containing around 50% methanol due to various intramolecular interactions between heteroatoms and substituents. Therefore this study was performed using methanol/water (55:45) as the mobile phase. The conditions (non-buffered mobile phase) were chosen with respect to conditions of biological evaluations, which are performed mostly under neutral conditions (pH ~ 7). The lipophilicity data can be strongly influenced by intramolecular interactions under the applied chromatographic conditions which were investigated in the paper. The HPLC separation module Waters Alliance 2695 XE and Waters Photodiode Array Detector 2996 (Waters Corp., Milford, MA, U.S.A.) were used. The chromatographic column Symmetry® C18 5 μm, 4.6 × 250 mm, Part No. WAT054275, (Waters Corp., Milford, MA, U.S.A.) was used. The HPLC separation process was monitored by Millennium32® Chromatography Manager Software, Waters 2004 (Waters Corp.). The mixture of MeOH p.a. (55.0%) and H2O-HPLC – Mili-Q Grade (45.0%) was used as a mobile phase. The total flow of the column was 0.9 mL/min, injection 30 μL, column temperature 30 °C and sample temperature 10 °C. The detection wavelength 210 nm was chosen. The KI methanolic solution was used for the dead time (tD) determination. Retention times (tR) were measured in minutes. The capacity factors k were calculated using the Millennium32® Chromatography Manager Software according to formula k = (tR - tD)/tD, where tR is the retention time of the solute, whereas tD denotes the dead time obtained via an unretained analyte.

Data set [2] has as its system M. kansasii CIT11/06. Kind of data set: In vitro antimycobacterial evaluation (alamarBlue, 96 well plate). Conditions: Mycobacterium kansasii, CIT11/06, 120 h, read-out: MIC/IC90 M. kansasii. The format is cell-based. (Resazurin is reduced to fluorescent resorufin, in cell work by metabolically active cells.)
Data set [3] deals with M. absessus CIT21/06. The description is as above. The format is cell-based. Conditions: read-out: MIC/IC90 M. absessus.
For data set [4], the system named is Mycobacterium avium complex CIT19/06. Described as above. The format is cell-based. As to conditions: 120 h, read-out: MIC/IC90 M. avium complex.
Data set [5] concerns M. smegmatis MC2155. Described as above. As to conditions: Mycolicibacterium smegmatis. The format is cell-based.
The subject of data set [6] is photosynthetic electron transport (PET) in spinach chloroplasts. The data set can be described thus: Inhibition of photosynthetic electron transport (PET) in spinach chloroplasts, DCPIP photoreduction. As to conditions: phosphate buffer pH 7.2, DMSO up to 4%. The format is biochemical, Spinacia oleracea L. Here is the method: Chloroplasts were prepared from spinach (Spinacia oleracea L.) according to Masarovicova and Kralova. The inhibition of photosynthetic electron transport (PET) in spinach chloroplasts was determined spectrophotometrically (Genesys 6, Thermo Scientific, U.S.A.) using an artificial electron acceptor 2,6-dichlorophenol-indophenol (DCIPP) according to Kralova et al. and the rate of photosynthetic electron transport was monitored as a photoreduction of DCPIP. The measurements were carried out in phosphate buffer (0.02 mol/L, pH 7.2) containing sucrose (0.4 mol/L), MgCl2 (0.005 mol/L) and NaCl (0.015 mol/L). The chlorophyll content was 30 mg/L in these experiments and the samples were irradiated (~100 W/m^2) from 10 cm distance with a halogen lamp (250 W) using a 4 cm water filter to prevent warming of the samples (suspension temperature 22 °C). The studied compounds were dissolved in DMSO due to their limited water solubility. […] The inhibitory efficiency of the studied compounds was expressed by IC50 values, i.e. by molar concentration of the compounds causing 50% decrease in the oxygen evolution rate relative to the untreated control.

Data set [7] shares this test system. The arrangement: method as in earlier work. Conditions: standard, read-out: PET inhibition IC50; cited from earlier work.
Setting [8] is: Middlebrook broth, 37 °C five days.
The mark [9] stands for this setting: Middlebrook broth, 37 °C overnight.
Setting [10] is: MC2155, Middlebrook broth, 37 °C overnight, read-out: MIC/IC90 M. smegmatis.

Take `Cc1nc2ccccc2c(=O)[nH]1` [Compound 1, 2-Methylquinazolin-4(3H)-one]: the log k in data set [1] is 0.1170. Further, the MIC in data set [2] was above 300 µg/mL; in data set [3] it was above 300 µg/mL; in data set [4] it was above 300 µg/mL; in data set [5] (MC2155, read-out: MIC/IC90 M. smegmatis) it was above 300 µg/mL.

On to `Cc1nc2ccccc2c(=O)n1CCO` [Compound 2, 3-(2-Hydroxyethyl)-2-methylquinazolin-4(3H)-one], for which the log k in data set [1] is on record as 0.7047. The MIC in data set [2] (setting [8]), in data set [3] (setting [9]), in data set [4] (setting [8]) and in data set [5] (setting [10]) was above 300 µg/mL throughout. This molecule also gave a pIC50 in data set [6] of 3.44.

Regarding `O=c1[nH]c(/C=C/c2ccccc2)nc2ccccc12` [Compound 3a, 2-(E)-Styrylquinazolin-4(3H)-one], in data set [1], the log k is recorded as 1.1148. Also, the MIC in data set [2] (setting [8]), in data set [3] (setting [9]), in data set [4] (setting [8]) and in data set [5] (setting [10]) was above 300 µg/mL in each case.

For `COc1ccccc1/C=C/c1nc2ccccc2c(=O)[nH]1` [Compound 3b, 2-[(E)-2-(2-Methoxyphenyl)vinyl]quinazolin-4(3H)-one], the log k in data set [1] is given as 1.1509. For the same molecule, the MIC in data set [2] (setting [8]), in data set [3] (setting [9]), in data set [4] (setting [8]) and in data set [5] (setting [10]) was above 100 µg/mL each time.

Consider `COc1cccc(/C=C/c2nc3ccccc3c(=O)[nH]2)c1` [Compound 3c, 2-[(E)-2-(3-Methoxyphenyl)vinyl]quinazolin-4(3H)-one], for which the log k in data set [1] is given as 1.1837. Also, the MIC in data set [2] (setting [8]), in data set [3] (setting [9]), in data set [4] (setting [8]) and in data set [5] (setting [10]) was above 100 µg/mL in each case.

Turning to `COc1ccc(/C=C/c2nc3ccccc3c(=O)[nH]2)cc1` [Compound 3d, 2-[(E)-2-(4-Methoxyphenyl)vinyl]quinazolin-4(3H)-one], the log k in data set [1] is listed as 1.1351. The MIC in data set [2] (setting [8]), in data set [3] (setting [9]), in data set [4] (setting [8]) and in data set [5] (setting [10]) was above 100 µg/mL in each case. In data set [6], this molecule had a negative logarithm of the IC50 (pIC50) of 3.16.

As for `COc1ccc(/C=C/c2nc3ccccc3c(=O)[nH]2)c(OC)c1` [Compound 3e, 2-[(E)-2-(2,4-Dimethoxyphenyl)vinyl]quinazolin-4(3H)-one], the log k in data set [1] is recorded as 1.1982. Moreover, the MIC in data set [2] (setting [8]) was 20 µg/mL (≈ 64.9 µM); in data set [3] (setting [9]) it was 80 µg/mL (≈ 259 µM); in data set [4] (setting [8]) it was 80 µg/mL (≈ 259 µM); in data set [5] (setting [10]), above 100 µg/mL. Also, the pIC50 in data set [6] was 3.41.

With `O=c1[nH]c(/C=C/c2cccc(Cl)c2)nc2ccccc12` [Compound 3f, 2-[(E)-2-(3-Chlorophenyl)vinyl]quinazolin-4(3H)-one], the log k in data set [1] is reported as 1.5059. Also, the MIC in data set [2] (setting [8]), in data set [3] (setting [9]), in data set [4] (setting [8]) and in data set [5] (setting [10]) was above 300 µg/mL in each case. Besides, the pIC50 in data set [6] was 2.99.

`O=c1[nH]c(/C=C/c2ccccc2Br)nc2ccccc12` [Compound 3g, 2-[(E)-2-(2-Bromophenyl)vinyl]quinazolin-4(3H)-one]: the log k in data set [1] was 1.4830. The MIC in data set [2] (setting [8]), in data set [3] (setting [9]), in data set [4] (setting [8]) and in data set [5] (setting [10]) was above 100 µg/mL throughout.

With `O=c1[nH]c(/C=C/c2cccc(Br)c2)nc2ccccc12` [Compound 3h, 2-[(E)-2-(3-Bromophenyl)vinyl]quinazolin-4(3H)-one], the log k in data set [1] is 1.5904. The MIC in data set [2] (setting [8]), in data set [3] (setting [9]), in data set [4] (setting [8]) and in data set [5] (setting [10]) was above 100 µg/mL in each case. For the same molecule, in data set [6], the pIC50 was 3.25.

`O=c1[nH]c(/C=C/c2ccc(Br)cc2)nc2ccccc12` [Compound 3i, 2-[(E)-2-(4-Bromophenyl)vinyl]quinazolin-4(3H)-one]: the log k in data set [1] was 1.5927. The MIC in data set [2] (setting [8]), in data set [3] (setting [9]), in data set [4] (setting [8]) and in data set [5] (setting [10]) was above 100 µg/mL each time. In addition, in data set [6], the pIC50 is 3.18.

Turning to `O=Cc1ccc(/C=C/c2nc3ccccc3c(=O)[nH]2)cc1` [Compound 3j, 2-[(E)-2-(4-Carbaldehydephenyl)vinyl]quinazolin-4(3H)-one], in data set [1], the log k is given as 0.8005.

In the case of `O=c1[nH]c(/C=C/c2ccc(O)c(O)c2O)nc2ccccc12` [Compound 3k, 2-[(E)-2-(2,3,4-Trihydroxyphenyl)vinyl]quinazolin-4(3H)-one], in data set [1], the log k was 0.5510.

For `Clc1nc(/C=C/c2ccccc2)nc2ccccc12` [Compound 4a, 4-Chloro-2-(E)-styrylquinazoline], in data set [1], the log k is 1.1088. Also, the MIC in data set [2] (setting [8]), in data set [3] (setting [9]), in data set [4] (setting [8]) and in data set [5] (setting [10]) was above 100 µg/mL each time. Besides, in data set [6], the pIC50 was 3.55.

Turning to `COc1ccccc1/C=C/c1nc(Cl)c2ccccc2n1` [Compound 4b, 4-Chloro-2-[(E)-2-(2-methoxyphenyl)vinyl]quinazoline], the log k in data set [1] is 1.1497. Further, the MIC was 60 µg/mL (≈ 202 µM) in data set [2] (setting [8]), 80 µg/mL (≈ 270 µM) in data set [3] (setting [9]), 80 µg/mL (≈ 270 µM) in data set [4] (setting [8]) and above 100 µg/mL in data set [5] (setting [10]).

Consider `COc1cccc(/C=C/c2nc(Cl)c3ccccc3n2)c1` [Compound 4c, 4-Chloro-2-[(E)-2-(3-methoxyphenyl)vinyl]quinazoline], for which the log k in data set [1] is given as 1.1827. The MIC in data set [2] (setting [8]) was 60 µg/mL (≈ 202 µM); in data set [3] (setting [9]), above 100 µg/mL; in data set [4] (setting [8]), above 100 µg/mL; in data set [5] (setting [10]) it was above 100 µg/mL. The same molecule showed a pIC50 in data set [6] of 3.52.

Regarding `COc1ccc(/C=C/c2nc(Cl)c3ccccc3n2)cc1` [Compound 4d, 4-Chloro-2-[(E)-2-(4-methoxyphenyl)vinyl]quinazoline], the log k in data set [1] is reported as 1.1337. For the same molecule, the MIC in data set [2] (setting [8]), in data set [3] (setting [9]), in data set [4] (setting [8]) and in data set [5] (setting [10]) was above 100 µg/mL throughout. Also, in data set [6], the pIC50 was 3.41.

In the case of `COc1ccc(/C=C/c2nc(Cl)c3ccccc3n2)c(OC)c1` [Compound 4e, 4-Chloro-2-[(E)-2-(2,4-dimethoxyphenyl)vinyl]quinazoline], in data set [1], the log k is 1.1953. The MIC in data set [2] (setting [8]), in data set [3] (setting [9]), in data set [4] (setting [8]) and in data set [5] (setting [10]) was above 100 µg/mL in each case. This molecule had a negative-log IC50 (pIC50) in data set [6] of 3.29.

Consider `CN(C)C(=O)Nc1ccc(Cl)c(Cl)c1` [DCMU, 3-(3,4-dichlorophenyl)-1,1-dimethylurea], for which the pIC50 in data set [7] is ~5.72 and 5.72.

Turning to `NNC(=O)c1ccncc1` [INH, isoniazid, reference compound], the MIC was below 10 µg/mL in data set [2] (setting [8]), above 100 µg/mL in data set [3] (setting [9]), below 10 µg/mL in data set [4] (setting [8]) and 39 µg/mL (≈ 284 µM) in data set [5] (setting [10]).
